Data published in patent US12622866B2, “Topical compositions and methods” (MARY KAY INC., priority 2018, dated 2026).

Legend:
B16-F1 melanocytes = assay: B16 pigmentation assay (melanogenesis); assay type: cell-based, mouse; details: ingredient 1%, 6 days, melanin secretion by absorbance at 405 nm
Text: Melanogenesis is the process by which melanocytes produce melanin, a naturally produced pigment that imparts color to skin, hair, and eyes. Inhibiting melanogenesis is beneficial to prevent skin darkening and lighten dark spots associated with aging. This bioassay utilizes B16-F1 melanocytes (ATCC), an immortalized mouse melanoma cell line, to analyze the effect of compounds on melanogenesis. The endpoint of this assay is a spectrophotometric measurement of melanin production and cellular viability. B16-F1 melanocytes, were cultivated in standard DMEM growth medium with 10% fetal bovine serum (Mediatech) at 37° C. in 10% CO2 and then treated with the ingredients in the amounts indicated in Table 2 for 6 days. Following incubation, melanin secretion was measured by absorbance at 405 nm and cellular viability is quantified.

[1] = Antioxidant (AO) assay, total anti-oxidant capacity; assay type: biochemical; details: ingredient 1%, Cayman Anti-Oxidant capacity kit #709001
Text: The assay relies on the ability of antioxidants in the sample to inhibit the oxidation of ABTS® (2,2′-azino-di-[3-ethylbenzthiazoline sulphonate]) to ABTS®·+by metmyoglobin. The antioxidant system of living organisms includes enzymes such as superoxide dismutase, catalase, and glutathione peroxidase; macromolecules such as albumin, ceruloplasmin, and ferritin; and an array of small molecules, including ascorbic acid, α-tocopherol, β-carotene, reduced glutathione, uric acid, and bilirubin. The sum of endogenous and food-derived antioxidants represents the total antioxidant activity of the extracellular fluid. Cooperation of all the different antioxidants provides greater protection against attack by reactive oxygen or nitrogen radicals, than any single compound alone. Thus, the overall antioxidant capacity may give more relevant biological information compared to that obtained by the measurement of individual components, as it considers the cumulative effect of all antioxidants present in plasma and body fluids. The capacity of the antioxidants in the sample to prevent ABTS oxidation was compared with that of Trolox, a water-soluble tocopherol analogue, and was quantified as molar Trolox equivalents. […]

[2] = tested on: Type I procollagen peptide secretion by human adult epidermal fibroblasts; assay: Collagen stimulation assay; assay type: cell-based; details: ingredient 1%, 3 days, ELISA
Text: Collagen is an extracellular matrix protein critical for skin structure. Increased synthesis of collagen helps improve skin firmness and elasticity. This bioassay was used to examine effects on the production of procollagen peptide (a precursor to collagen) by human epidermal fibroblasts. The endpoint of this assay was a spectrophotometric measurement that reflects the presence of procollagen peptide and cellular viability. The assay employed the quantitative sandwich enzyme immunoassay technique whereby a monoclonal antibody specific for procollagen peptide was pre-coated onto a microplate. Standards and samples were pipetted into the wells and any procollagen peptide present was bound by the immobilized antibody. […] Color development was stopped and the intensity of the color at 450 nm was measured using a microplate reader.
For generation of samples and controls, subconfluent normal human adult epidermal fibroblasts (Cascade Biologics) were cultivated in standard DMEM growth medium with 10% fetal bovine serum (Mediatech) at 37° C. in 10% CO2. […] Following incubation, cell culture medium was collected and the amount of Type I procollagen peptide secretion was quantified using the sandwich enzyme linked immuno-sorbant assay (ELISA) from Takara (#MK101) as explained above. […]

mushroom tyrosinase = assay: Mushroom tyrosinase activity assay; assay type: biochemical; details: ingredient 1%, substrate L-Dopa, read at 490 nm
Experimental: In mammalian cells, tyrosinase catalyzes two steps in the multi-step biosynthesis of melanin pigments from tyrosine (and from the polymerization of dopachrome). Tyrosinase is localized in melanocytes and produces melanin (aromatic quinone compounds) that imparts color to skin, hair, and eyes. Purified mushroom tyrosinase (Sigma) was incubated with its substrate L-Dopa (Fisher) in the presence of each of the ingredients in the amounts indicated in Table 3. Pigment formation was evaluated by colorimetric plate reading at 490 nm. The percent inhibition of mushroom tyrosinase activity was calculated compared to non-treated controls to determine the ability of tested ingredients to inhibit the activity of purified enzyme.

[3] = tested on: TNF-α production by human epidermal keratinocytes; assay: Tumor necrosis factor alpha (TNF-α) assay; assay type: cell-based; details: ingredient 1%, PMA 10 ng/ml, 6 hours, ELISA
Text: The prototype ligand of the TNF superfamily, TNF-α, is a pleiotropic cytokine that plays a central role in inflammation. Increase in its expression is associated with an up regulation in pro-inflammatory activity. This bioassay was used to analyze the effect of the ingredients in the amounts listed in Table 9 on the production of TNF-α by human epidermal keratinocytes. The endpoint of this assay was a spectrophotometric measurement that reflects the presence of TNF-α and cellular viability. The assay employs the quantitative sandwich enzyme immunoassay technique whereby a monoclonal antibody specific for TNF-α has been pre-coated onto a microplate. Standards and samples were pipetted into the wells and any TNF-α present is bound by the immobilized antibody. After washing away any unbound substances, an enzyme-linked polyclonal antibody specific for TNF-α is added to the wells. Following a wash to remove any unbound antibody-enzyme reagent, a substrate solution is added to the wells and color develops in proportion to the amount of TNF-α bound in the initial step using a microplate reader for detection at 450 nm. The color development was stopped and the intensity of the color was measured. […] Following incubation, cell culture medium was collected and the amount of TNF-a secretion quantified using a sandwich enzyme linked immuno-sorbant assay (ELISA) from R&D Systems (#DTA00C).

[4] = tested on: lysyl oxidase expression in skin cells; assay: Lysyl oxidase assay; assay type: cell-based; details: ingredient 1%
Experimental: A lysyl oxidase assay was performed on skin cells (e.g., epidermal keratinocytes, fibroblasts, and/or dermal endothelial cells) to determine the ability of the ingredient listed in Table 8 to stimulate expression of lysyl oxidase in skin. Lysyl oxidase can catalyze crosslinking of elastin and collagens, thereby providing for a more structurally rigid matrix for skin. By increasing expression of lysyl oxidase, increased cross-linking of elastin and collagens can occur, which can be beneficial in reducing the appearance of fine lines, wrinkles, sagging skin, and/or non-elastic skin.

## NC(=O)c1cccnc1 [Niacinamide]
B16-F1 melanocytes
  % of Inhibition (B16 melanogenesis): 30%

## Sodium ascorbyl phosphate [Stay C 50]
[1]
  % of Inhibition (Anti-oxidant capacity): 97%
[2]
  % of expression (Collagen 1 Expression): 36%
Mushroom tyrosinase
  % of Inhibition (Mushroom Tyrosinase Inhibition): 26%
[3]
  % of expression (TNF-α Expression): 85%
[4]
  % of expression (Lysyl Oxidase): 500%
